For one assay, the target named is BsAK (Bacillus subtilis, UniProt P16304). The assay can be described thus: microscale thermophoresis, amine-labelled protein. It is filed as binding. Background: Microscale thermophoresis detects binding through changes in fluorescence in a small temperature gradient.
For another assay, the target named is GsAK (Geobacillus stearothermophilus, UniProt P27142). The assay can be described thus: microscale thermophoresis, amine-labelled protein. It is filed as binding.
Sequence of GsAK (P27142 whole entry): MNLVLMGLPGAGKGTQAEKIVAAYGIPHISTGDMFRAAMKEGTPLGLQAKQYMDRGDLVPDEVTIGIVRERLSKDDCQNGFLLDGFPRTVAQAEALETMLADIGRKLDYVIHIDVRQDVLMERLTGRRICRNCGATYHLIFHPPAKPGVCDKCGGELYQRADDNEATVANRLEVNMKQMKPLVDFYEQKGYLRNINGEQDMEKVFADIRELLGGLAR

By Kd is commonly meant the concentration at which binding is half-saturated. Low values mean a tighter complex, high ones a looser complex.

Sequence of BsAK (P16304 whole entry): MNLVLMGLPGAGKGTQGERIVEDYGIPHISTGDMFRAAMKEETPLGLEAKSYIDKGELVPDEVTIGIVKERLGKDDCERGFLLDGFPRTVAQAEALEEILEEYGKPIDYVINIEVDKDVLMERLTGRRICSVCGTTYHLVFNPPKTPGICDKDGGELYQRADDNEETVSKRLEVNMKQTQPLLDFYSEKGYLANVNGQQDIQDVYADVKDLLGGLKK

`Nc1ncnc2c1ncn2[C@@H]1O[C@H](COP(=O)(O)OP(=O)(O)OP(=O)(O)OP(=O)(O)OP(=O)(O)OC[C@H]2O[C@@H](n3cnc4c(N)ncnc43)[C@H](O)[C@@H]2O)[C@@H](O)[C@H]1O` [Ap5A]: the equilibrium dissociation constant (Kd) was found to be 25.1 ± 1.1 nM on BsAK and 17 ± 5.7 nM on GsAK.

The values are drawn from article doi:10.1101/2023.10.25.564053v1 (biorxiv, 2023).
